Assay results: ChEMBL document CHEMBL1128857

Target: T1, Xaa-Pro dipeptidase (Homo sapiens) (UniProt P12955)
T1 sequence (whole entry): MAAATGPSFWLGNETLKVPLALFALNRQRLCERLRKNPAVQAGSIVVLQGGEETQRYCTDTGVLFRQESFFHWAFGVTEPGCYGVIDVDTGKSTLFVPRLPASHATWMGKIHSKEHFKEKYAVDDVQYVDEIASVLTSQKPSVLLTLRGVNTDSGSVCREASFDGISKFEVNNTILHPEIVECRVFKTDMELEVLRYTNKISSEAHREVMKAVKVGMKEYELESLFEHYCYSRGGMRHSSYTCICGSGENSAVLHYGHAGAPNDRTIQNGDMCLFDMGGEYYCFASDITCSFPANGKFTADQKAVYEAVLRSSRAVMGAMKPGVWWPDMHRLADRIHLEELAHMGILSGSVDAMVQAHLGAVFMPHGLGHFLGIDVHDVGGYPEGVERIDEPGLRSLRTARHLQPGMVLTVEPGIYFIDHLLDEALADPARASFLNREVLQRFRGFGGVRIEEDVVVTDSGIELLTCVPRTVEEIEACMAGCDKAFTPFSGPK
Description: Inhibitory constant for inhibition of prolidase in the second phase of biphasic inhibition

Compound: C=C(OP(=O)(O)O)C(=O)O
- Ki': 240 µM
